Laboratory results taken from article PMC9412300, “In Vitro Evaluation and Mitigation of Niclosamide’s Liabilities as a COVID-19 Treatment” (Vaccines, 2022).
Read-outs that look alike come from different tables or passages of the source.

Key:
in vitro [1] = conditions: African green monkey
[2] = system: SARS-CoV-2 WA1 (wildtype); assay: microbe, parasite or virus in culture; type: cell-based
[3] = system: SARS-CoV-2 B.1.1.7 (alpha); assay: microbe, parasite or virus in culture; type: cell-based
[4] = Cell viability (cell count per well) in H1437, 72 h compound exposure; type: cell-based, human; conditions: human
in vitro [5] = conditions: African green monkey; remark: listed apart in the source
H1437 cells = assay: Cell viability (cell count per well) in H1437, 72 h compound exposure; type: cell-based, human; conditions: H1437 infected with WA1, 72 h compound exposure
[6] = Cell viability in VeroE6, shortened 24 h infection assay; conditions: African green monkey
[7] = system: SARS-CoV-2 B.1.351 (beta); assay: microbe, parasite or virus in culture; type: cell-based; conditions: Severe acute respiratory syndrome coronavirus 2, Vero C1008; read-out: IC50 against B.1.351, 24 h infection
SARS-CoV = conditions: cited from earlier work
[8] = system: SARS-CoV-2 B.1.617.2 (delta); assay: microbe, parasite or virus in culture; type: cell-based; conditions: Severe acute respiratory syndrome coronavirus 2, Vero C1008; read-out: IC50 against B.1.617.2, 24 h infection
SARS-CoV-2 P.1 (gamma) = assay: microbe, parasite or virus in culture; type: cell-based; conditions: Severe acute respiratory syndrome coronavirus 2, Vero C1008; read-out: IC50 against P.1, 24 h infection
SARS-CoV-2 = system: SARS-CoV-2; set-up: method as in PMID 35138402; conditions: phase 2, 2 g orally for 7 days; cited from earlier work
[9] = set-up: method as in PMID 26848771, PMID 31040114; conditions: cited from earlier work
[10] = set-up: method as in PMID 33842908; conditions: phase 1, 50 mg over 2.5 days inhalable/intranasal; cited from earlier work
[11] = set-up: method as in PMID 26848771, PMID 31040114; conditions: cited from earlier work; remark: listed apart in the source
[12] = rats, oral administration at 5 mg/kg; cited from earlier work
[13] = Severe acute respiratory syndrome coronavirus 2, Vero C1008, 24 h; read-out: IC50 WA1 (protonophores)
[14] = Severe acute respiratory syndrome coronavirus 2, Vero C1008, 24 h; read-out: IC50 B.1.1.7 (protonophores)
[15] = H1437 cells infected with SARS-CoV-2 WA1, H1437 infected with WA1, 72 h compound exposure, read-out: H1437 (WA1) CC50

Compound: O=[N+]([O-])c1ccc(O)c([N+](=O)[O-])c1 [2,4 DNP]
- CC50 (in vitro [1]): > 100 µM
- IC50 [2, 13]: > 100 µM
- IC50 [3, 14]: > 100 µM

Compound: O=C(Nc1ccc([N+](=O)[O-])cc1Cl)c1ccccc1O [Compound 2]
- CC50 at 72 h [4, 15]: 8.4 µM
- CC50 (in vitro [5]): 5.59 µM

Compound: Cc1ccc(O)c(C(=O)Nc2ccc([N+](=O)[O-])cc2Cl)c1 [Compound 3]
- CC50 (H1437 cells): 3.06 µM
- CC50 (VeroE6 cells): 6.28 µM

Compound: COc1ccc(O)c(C(=O)Nc2ccc([N+](=O)[O-])cc2Cl)c1 [Compound 4]
- CC50 (H1437 cells): 8.94 µM
- CC50 (VeroE6 cells): 10.1 µM

Compound: O=C(Nc1ccccc1Cl)c1cc(Cl)ccc1O [Compound 5]
- CC50 (H1437 cells): 18.6 µM
- CC50 (VeroE6 cells): 8.44 µM

Compound: Cc1ccc(NC(=O)c2cc(Cl)ccc2O)c(Cl)c1 [Compound 6]
- CC50 (H1437 cells): 6.05 µM
- CC50 (VeroE6 cells): 4.59 µM

Compound: COC(=O)c1ccc(NC(=O)c2cc(Cl)ccc2O)c(Cl)c1 [Compound 7]
- CC50 at 72 h [4, 15]: > 20 µM
- CC50 (in vitro [5]): 8.14 µM

Compound: O=C(O)c1ccc(NC(=O)c2cc(Cl)ccc2O)c(Cl)c1 [Compound 8]
- CC50 (H1437 cells): > 20 µM
- CC50 (VeroE6 cells): > 20 µM

Compound: O=C(Nc1ccc([N+](=O)[O-])cc1Cl)c1cccc(Cl)c1 [Compound 9]
- CC50 at 72 h [4, 15]: > 20 µM
- CC50 (in vitro [5]): > 20 µM

Compound: COc1ccc(NC(=O)c2cc(Cl)ccc2O)c(Cl)c1 [Compound 10]
- CC50 (H1437 cells): 18.9 µM
- CC50 (VeroE6 cells): > 20 µM

Compound: CC(C)(C)c1ccc(O)c(C(=O)Nc2ccc([N+](=O)[O-])cc2Cl)c1 [Compound 11]
- CC50 at 72 h [4, 15]: 1.92 µM
- CC50 (in vitro [5]): 3.41 µM

Compound: COc1ccc(O)c(C(=O)Nc2ccc([N+](=O)[O-])cc2Cl)c1 [Compound 12]
- CC50 (H1437 cells): 7.53 µM
- CC50 (VeroE6 cells): 10.3 µM

Compound: COC(=O)c1ccc(NC(=O)c2cc(C(C)(C)C)ccc2O)c(Cl)c1 [Compound 13]
- CC50 (H1437 cells): > 20 µM
- CC50 (VeroE6 cells): 14.6 µM

Compound: CC(C)(C)c1ccc(O)c(C(=O)Nc2ccc(C(=O)O)cc2Cl)c1 [Compound 14]
- CC50 (H1437 cells): > 20 µM
- CC50 (VeroE6 cells): 14.2 µM

Compound: CC(C)(C)c1ccc(O)c(C(=O)Nc2ccc(C(=O)O)cc2F)c1 [Compound 15]
- CC50 (H1437 cells): > 20 µM
- CC50 (VeroE6 cells): > 20 µM

Compound: Cc1cc(C(=O)O)ccc1NC(=O)c1cc(C(C)(C)C)ccc1O [Compound 16]
- CC50 (H1437 cells): > 20 µM
- CC50 (VeroE6 cells): > 20 µM

Compound: CC(C)(C)c1cc(C(=O)Nc2ccc(NS(C)(=O)=O)cc2Cl)c(O)c(C(C)(C)C)c1 [Compound 18]
- CC50 (H1437 cells): > 20 µM
- CC50 (VeroE6 cells): > 20 µM

Compound: CC(C)(C)c1cc(C(=O)Nc2ccc(N)cc2Cl)c(O)c(C(C)(C)C)c1 [Compound 19]
- CC50 (H1437 cells): > 20 µM
- CC50 (VeroE6 cells): 17.6 µM

Compound: Cc1cc(NC(=O)c2cc(C(C)(C)C)cc(C(C)(C)C)c2O)ccc1C(=O)O [Compound 20]
- CC50 (H1437 cells): > 20 µM
- CC50 (VeroE6 cells): > 20 µM

Compound: COC(=O)c1ccc(NC(=O)c2cc(C3CCCCC3)ccc2O)c(Cl)c1 [Compound 21]
- CC50 (H1437 cells): > 20 µM
- CC50 (VeroE6 cells): > 20 µM

Compound: O=C(O)c1ccc(NC(=O)c2cc(C3CCCCC3)ccc2O)c(Cl)c1 [Compound 22]
- CC50 (H1437 cells): > 20 µM
- CC50 (VeroE6 cells): > 20 µM

Compound: COC(=O)c1ccc(NC(=O)c2cc(C(F)(F)F)ccc2O)c(C)c1 [Compound 23]
- CC50 (H1437 cells): > 20 µM
- CC50 (VeroE6 cells): > 20 µM

Compound: N#Cc1ccc(NC(=O)c2cc(Cl)ccc2O)c(Cl)c1 [Compound 24]
- CC50 at 72 h [4, 15]: 0.88 µM
- CC50 (in vitro [5]): 4.72 µM

Compound: COC(=O)c1ccc(NC(=O)c2cccc(C(C)(C)C)c2O)c(Cl)c1 [Compound 25]
- CC50 (H1437 cells): > 20 µM
- CC50 (VeroE6 cells): > 20 µM

Compound: CC(C)(C)c1cc(C(=O)Nc2ccc(C(=O)O)cc2Cl)c(O)c(C(C)(C)C)c1 [Compound 26]
- CC50 (H1437 cells): > 20 µM
- CC50 (VeroE6 cells): > 20 µM

Compound: Cc1cc(NC(=O)c2cc(C(C)(C)C)cc(C(C)(C)C)c2O)ccc1C(=O)O [Compound 27]
- CC50 (VeroE6 cells): > 20 µM

Compound: COc1ccc(O)c(C(=O)Nc2ccc(C(=O)O)cc2C)c1 [Compound 28]
- CC50 (H1437 cells): > 20 µM
- CC50 (VeroE6 cells): > 20 µM

Compound: CC(C)(C)c1cccc(C(=O)Nc2ccc(C(=O)O)cc2Cl)c1O [Compound 30]
- CC50 (H1437 cells): > 20 µM
- CC50 (VeroE6 cells): > 20 µM

Compound: CC(C)(C)c1cccc(C(=O)Nc2ccc([N+](=O)[O-])cc2Cl)c1O [Compound 31]
- CC50 (H1437 cells): 1.11 µM
- CC50 (VeroE6 cells): 7.21 µM

Compound: CC(C)(C)c1cccc(C(=O)Nc2ccc(N)cc2Cl)c1O [Compound 32]
- CC50 (H1437 cells): > 20 µM
- CC50 (VeroE6 cells): > 20 µM

Compound: CC(C)(C)c1cccc(C(=O)Nc2ccc(NS(C)(=O)=O)cc2Cl)c1O [Compound 33]
- CC50 (H1437 cells): > 20 µM
- CC50 (VeroE6 cells): > 20 µM

Compound: O=C(Nc1ccc(Br)cc1Cl)c1cc(Cl)ccc1O [Compound 34]
- CC50 (H1437 cells): 3.62 µM
- CC50 (VeroE6 cells): 5.47 µM

Compound: O=c1oc2ccccc2c(O)c1Cc1c(O)c2ccccc2oc1=O [Dicumarol, dicumarol]
- IC50 [2, 13]: > 100 µM
- CC50 at 25 h [6]: > 100 µM
- IC50 [3, 14]: > 100 µM

Compound: N#CC(C#N)=NNc1ccc(OC(F)(F)F)cc1 [FCCP]
- IC50 ([2]; Severe acute respiratory syndrome coronavirus 2, Vero C1008, 24 h, read-out: IC50 WA1 (protonophores)): 35 µM
- CC50 at 25 h [6]: 43 µM
- IC50 ([3]; Severe acute respiratory syndrome coronavirus 2, Vero C1008, 24 h, read-out: IC50 B.1.1.7 (protonophores)): 13 µM

Compound: O=C(Nc1ccc([N+](=O)[O-])cc1Cl)c1cc(Cl)ccc1O [Niclosamide]
- IC50 [7]: 0.44 ± 0.021 µM
- inhibition of SARS-CoV viral replication in vitro (SARS-CoV): low micromolar potency
- IC50 [2, 13]: 3.5 µM
- IC50 ([2]; Severe acute respiratory syndrome coronavirus 2, Vero C1008; read-out: IC50 against WA1, 24 h infection): 1.66 µM
- CC50 at 72 h ([4]; H1437 cells infected with SARS-CoV-2 B.1.1.7, H1437 infected with B.1.1.7, 72 h compound exposure, read-out: H1437 (B.1.1.7) CC50): 0.438 µM
- CC50 at 72 h [4, 15]: 17.1 µM
- IC50 [8]: 0.774 ± 0.058 µM
- CC50 at 25 h ([6]; VeroE6 cells infected with SARS-CoV-2, CC50 (protonophores), VeroE6, 24 h infection conditions, starting concentration 100 μM): 66 µM
- CC50 (in vitro [5]): 1.05 µM
- IC50 (SARS-CoV-2 P.1 (gamma)): 0.399 ± 0.034 µM
- effect on the duration of the contagious period of SARS-CoV-2 (SARS-CoV-2): no statistically significant effect
- IC50 [3, 14]: 0.25 µM
- IC50 ([3]; Severe acute respiratory syndrome coronavirus 2, Vero C1008; read-out: IC50 against B.1.1.7, 24 h infection): 0.298 µM
- oral bioavailability [9]: < 10%
- participants with moderate lung irritation [10]: 59%
- water solubility [11]: poor
- maximal serum concentration (Cmax) [12]: 354 ± 152 ng/mL

Compound: O=C(Nc1cc(Cl)cc(Cl)c1O)c1c(O)c(Cl)cc(Cl)c1Cl [Oxyclozanide, oxyclozanide]
- IC50 [2, 13]: 64 µM
- CC50 at 25 h [6]: > 100 µM
- IC50 [3, 14]: 20 µM
